Data from the Deep4Chem optical property database.

Test: solvent given as SMILES
[1] = in c1cc(-c2cccc(-n3c4ccccc4c4ccccc43)c2)cc(-n2c3ccccc3c3ccccc32)c1

O=C1c2ccccc2-c2ccc(N3CCN(c4ccccc4)CC3)c3cccc1c23
fluorescence lifetime (in C1CCCCC1): 7.85 ns
fluorescence lifetime (in C1CCOC1): 2.59 ns
fluorescence lifetime (in C1COCCO1): 8.98 ns
fluorescence lifetime (in CC1COC(=O)O1): 0.09 ns
fluorescence lifetime (in CC#N): 0.03 ns
fluorescence lifetime (in CC(C)=O): 0.09 ns
fluorescence lifetime (in CCCCCCCCO): 0.29 ns
fluorescence lifetime (in CCCCCO): 0.22 ns
fluorescence lifetime (in CCCCO): 0.16 ns
fluorescence lifetime (in CCCO): 0.22 ns
fluorescence lifetime (in CCO): 0.07 ns
fluorescence lifetime (in CCOC(C)=O): 2 ns
fluorescence lifetime (in CN(C)C=O): 0.06 ns
fluorescence lifetime (in CO): 0.03 ns
fluorescence lifetime (in CS(C)=O): 0.06 ns
fluorescence lifetime (in Cc1ccccc1): 9.06 ns
fluorescence lifetime (in ClC(Cl)Cl): 8.88 ns

CN1CCN(CCCN2c3ccccc3Sc3ccc(Cl)cc32)CC1
fluorescence lifetime (in CC#N): 0.91 ns
fluorescence lifetime (in CO): 0.89 ns

N#C/C(=C\c1ccc(C#N)cc1)c1nc(-c2ccc(Cl)cc2)c(-c2ccccc2)s1
fluorescence lifetime (in CC#N): 2.48 ns

c1cc2c3c(c1)OCCCCCCCCOc1cccc(c1-c1c4ccccc4c-3c3ccccc13)OCCCCCCCCO2
fluorescence lifetime (in C1CCCCC1): 8.01 ns

c1cc2cc(c1)c1ccc3ccc4ccc(cc4c3c1)c1ccc3ccc4ccc(cc4c3c1)c1cccc2c1
fluorescence lifetime (in Cc1ccccc1): 4.7 ns

N#CC(C#N)=Cc1ccc(-c2ccc(N(c3ccccc3)c3ccccc3)cc2)o1
fluorescence lifetime (in ClC(Cl)Cl): 2.73 ns

N#CC(C#N)=Cc1ccc2c(c1)c1ccccc1n2-c1cc2ccccc2c2ccccc12
fluorescence lifetime (in ClCCl): 4.68 ns

CCC1=C(C)C2=Cc3cc(I)cn3[B-](F)(F)[N+]2=C1C
fluorescence lifetime (in C1CCCCC1): 0.489 ns
fluorescence lifetime (in CC(C)=O): 0.317 ns
fluorescence lifetime (in CCO): 0.349 ns
fluorescence lifetime (in CCOC(C)=O): 0.362 ns
fluorescence lifetime (in CO): 0.324 ns
fluorescence lifetime (in OCC(F)(F)F): 0.308 ns

COc1cccc2cc(C#N)c(=N)oc12
fluorescence lifetime (in ClCCl): 0.4 ns

N#Cc1ccc(/C=C/c2ccc3ccc4cccc5ccc2c3c45)cc1
fluorescence lifetime (in C1CCOC1): 1.82 ns
fluorescence lifetime (in CC1CCCCC1): 2.05 ns
fluorescence lifetime (in CC#N): 1.68 ns
fluorescence lifetime (in CO): 1.6 ns
fluorescence lifetime (in Cc1ccccc1): 1.76 ns
fluorescence lifetime (in ClC(Cl)Cl): 1.53 ns

CC1(C)CC(NCc2ccc3ccc4cccc5ccc2c3c45)CC(C)(C)N1
fluorescence lifetime (in C1CCCCC1): 61.8 ns
fluorescence lifetime (in CC#N): 26.2 ns
fluorescence lifetime (in CO): 41.9 ns
fluorescence lifetime (in ClC(Cl)Cl): 36.1 ns

CC1(C)c2ccccc2N(c2ccc(-c3cc(C#N)c(C#N)cc3-c3ccc(N4c5ccccc5C(C)(C)c5ccccc54)cc3)cc2)c2ccccc21
fluorescence lifetime [1]: 35 ns

c1cc2cccc3c4cccc5cccc(c(c1)c23)c54
fluorescence lifetime (in C1CCCCC1): 4.7 ns

O=C1c2ccccc2-c2cccc(O)c21
fluorescence lifetime (in C1CCCCC1): 1.24 ns
fluorescence lifetime (in C1COCCO1): 3.38 ns
fluorescence lifetime (in CC#N): 9.67 ns
fluorescence lifetime (in CC(C)O): 5.5 ns
fluorescence lifetime (in CCCCO): 5.22 ns
fluorescence lifetime (in CCCO): 4.82 ns
fluorescence lifetime (in CCO): 4.85 ns
fluorescence lifetime (in CCOC(C)=O): 5.48 ns
fluorescence lifetime (in CCOCC): 2.39 ns
fluorescence lifetime (in CO): 3.61 ns

CN(C)c1ccc2nc(-c3ccc(C=O)cc3)sc2c1
fluorescence lifetime (in C1CCCCC1): 2.5 ns

O=C1c2ccc3c4c(NC5CCCCC5)cc5c6c(ccc(c7c(NC8CCCCC8)cc(c2c37)C(=O)N1C1CCCCC1)c64)C(=O)N(C1CCCCC1)C5=O
fluorescence lifetime (in ClC(Cl)Cl): 1.4 ns

O=c1oc2cc(S(=O)(=O)O)c3ccccc3c2nc1-c1ccccc1
fluorescence lifetime (in CC#N): 4.5 ns

COc1ccc(-c2nnc(-c3cc(-c4nnc(-c5ccc(OC)cc5)o4)c(-n4c5ccccc5c5ccccc54)cc3-n3c4ccccc4c4ccccc43)o2)cc1
fluorescence lifetime (in Cc1ccccc1): 5.1 ns
fluorescence lifetime (in O=P(c1ccccc1)(c1ccccc1)c1ccccc1Oc1ccccc1P(=O)(c1ccccc1)c1ccccc1): 7.3 ns

CC(C)(C)c1ccc(-c2c3c(c(-c4ccc(C(C)(C)C)cc4)c4cc5ccccc5cc24)Cc2c(c(-c4ccc(C(C)(C)C)cc4)c4cc5ccccc5cc4c2-c2ccc(C(C)(C)C)cc2)C3)cc1
fluorescence lifetime (in ClCCl): 2.35 ns

CC1(C)C(/C=C/C2=C(Oc3ccc(CCN=C=S)cc3I)C(=C/C=C3/N(CCCS(=O)(=O)[O-])c4ccccc4C3(C)C)/CCC2)=[N+](CCCS(=O)(=O)[O-])c2ccccc21
fluorescence lifetime (in CO): 0.947 ns

Cc1cc(C)c(B(c2ccc(N(c3ccccc3)c3ccccc3)cc2)c2c(C)cc(C)cc2C)c(C)c1
fluorescence lifetime (in Cc1ccccc1): 4 ns

Cc1ccc(-c2cc(C)[o+]c(C)c2)cc1
fluorescence lifetime (in CC#N): 8.7 ns
fluorescence lifetime (in ClCCl): 3.3 ns

C(=C\c1cc(/C=C/c2ccc(-n3c4ccccc4c4ccccc43)cc2)cc(/C=C/c2ccc(-n3c4ccccc4c4ccccc43)cc2)c1)/c1ccc(-n2c3ccccc3c3ccccc32)cc1
fluorescence lifetime (in C1CCOC1): 4.56 ns
fluorescence lifetime (in CC#N): 3.84 ns
fluorescence lifetime (in Cc1ccccc1): 3.41 ns
fluorescence lifetime (in ClCCl): 3.39 ns

CN(C)c1ccc2nc(-c3ccc(C(=O)O)cc3)sc2c1
fluorescence lifetime (in C1CCCCC1): 2.4 ns
fluorescence lifetime (in c1ccccc1): 2.5 ns

CC(C)c1cc(C(C)C)c(B2c3cc(-n4c5ccc(C(C)(C)C)cc5c5cc(C(C)(C)C)ccc54)ccc3N(c3ccccc3)c3ccc(-n4c5ccc(C(C)(C)C)cc5c5cc(C(C)(C)C)ccc54)cc32)c(C(C)C)c1
fluorescence lifetime [1]: 15 ns

CCC1=C(C)C2=C(C)c3cccn3[B-](F)(F)[N+]2=C1C
fluorescence lifetime (in C1CCCCC1): 5.46 ns
fluorescence lifetime (in CC(C)=O): 5.66 ns
fluorescence lifetime (in CCO): 5.73 ns
fluorescence lifetime (in CCOC(C)=O): 5.57 ns
fluorescence lifetime (in CO): 5.78 ns
fluorescence lifetime (in OCC(F)(F)F): 6.17 ns

C1=CC2=CC=CC3C=c4c(cc5cccc6cccc4c65)C(=C1)C23 (stereo not drawn)
fluorescence lifetime (in ClCCl): 7.18 ns

COC(=O)c1cc(=O)n(Cc2ccccc2)c2cc(-c3ccc(N(C)C)cc3)sc12
fluorescence lifetime (in ClCCl): 1.86 ns

CCCCCCN1C(=O)c2cccc3c(-c4sc(-c5ccc6c7c(cccc57)C(=O)N(CCCCCC)C6=O)c5c4OCCO5)ccc(c23)C1=O
fluorescence lifetime (in ClC(Cl)Cl): 0.462 ns

c1ccc(-c2nc(-c3ccc(-c4nc(-c5ccccc5)c(-c5ccccc5)o4)cc3)oc2-c2ccccc2)cc1
fluorescence lifetime (in C1COCCO1): 1.03 ns

CN1c2ccccc2CCc2ccccc21
fluorescence lifetime (in CC#N): 0.63 ns
fluorescence lifetime (in CO): 0.81 ns

COC(=O)CC1(C(=O)OC)Oc2c(c(C(C)=O)c3c(c2C(C)=O)OCO3)O1
fluorescence lifetime (in CC#N): 22.4 ns

Cc1ccc(-n2c(-c3ccccc3O)nc(-c3ccccc3O)c2-c2ccccc2O)cc1
fluorescence lifetime (in C1CCOC1): 3.1 ns
fluorescence lifetime (in CC(C)O): 3.5 ns
fluorescence lifetime (in CO): 2.9 ns
fluorescence lifetime (in CS(C)=O): 3.7 ns
fluorescence lifetime (in ClC(Cl)Cl): 1.2 ns
fluorescence lifetime (in ClCCl): 1.4 ns

c1ccc(-c2nc(-c3ccccc3)nc(-c3cc(-n4c5ccccc5c5ccccc54)c(-n4c5ccccc5c5ccccc54)c(-n4c5ccccc5c5ccccc54)c3)n2)cc1
fluorescence lifetime (in O=P(c1ccccc1)(c1ccccc1)c1ccc2oc3ccc(P(=O)(c4ccccc4)c4ccccc4)cc3c2c1): 13.1 ns

N#C/C(=C\c1ccncc1)c1nc(-c2ccc(Cl)cc2)cs1
fluorescence lifetime (in CC#N): 4.24 ns

CCn1c2ccccc2c2cc(-c3cc(-c4ccc5c(c4)c4ccccc4n5CC)nc(C#N)n3)ccc21
fluorescence lifetime (in C1CCOC1): 2.57 ns

CSc1sc(C(N)=O)c2nnn(C)c(=O)c12
fluorescence lifetime (in C1CCOC1): 19 ns
fluorescence lifetime (in CC#N): 21 ns
fluorescence lifetime (in CCO): 14 ns
fluorescence lifetime (in CN(C)C=O): 15 ns
fluorescence lifetime (in CO): 11 ns
fluorescence lifetime (in CS(C)=O): 5.4 ns

OCCSc1cccc2[n+]1[B-](F)(F)n1c(c3cccc4cccc1c43)=N2
fluorescence lifetime (in ClCCl): 7.3 ns

CC1(C)C(/C=C/C2=C(Oc3ccc(CCN=C=S)cc3F)C(=C/C=C3/N(CCCS(=O)(=O)[O-])c4ccccc4C3(C)C)/CCC2)=[N+](CCCS(=O)(=O)[O-])c2ccccc21
fluorescence lifetime (in CO): 0.843 ns

N#Cc1cnc(-c2c3ccccc3c(-c3ncc(C#N)cn3)c3ccccc23)nc1
fluorescence lifetime (in CCO): 2.5 ns
fluorescence lifetime (in ClCCl): 5.6 ns

Cc1cccc(-c2c3ccccc3cc3ccccc23)n1
fluorescence lifetime (in ClCCl): 5.7 ns

C/C=C/c1cccc(OC)c1
fluorescence lifetime (in CC#N): 6.5 ns
fluorescence lifetime (in CCCCCC): 5.9 ns

Cn1ccc(-c2nc3ccccc3nc2/C=C/N2CCCC2)c1
fluorescence lifetime (in C1CCCCC1): 1.87 ns
fluorescence lifetime (in C1CCOC1): 6.61 ns
fluorescence lifetime (in CC#N): 5.96 ns
fluorescence lifetime (in CC(C)=O): 6.72 ns
fluorescence lifetime (in CCO): 0.39 ns
fluorescence lifetime (in CO): 0.12 ns
fluorescence lifetime (in CS(C)=O): 5.54 ns
fluorescence lifetime (in Cc1ccccc1): 5.1 ns
fluorescence lifetime (in ClCCl): 8.33 ns

CCOC(=O)/N=c1/oc2c(OC)cccc2cc1C#N
fluorescence lifetime (in ClCCl): 0.3 ns

CC1(C)c2ccccc2N(c2ccc(-c3nnc(-c4ccccc4)o3)cc2)c2ccccc21
fluorescence lifetime (in Cc1ccccc1): 7 ns
fluorescence lifetime (in c1ccc(-n2c(-c3c(-n4c5ccccc5c5ccccc54)cccc3-n3c4ccccc4c4ccccc43)nc3ccccc32)cc1): 7.8 ns

CC[n+]1nc2cc3c4c(c2c2cc(F)ccc21)CCCN4CCC3
fluorescence lifetime (in O): 4.4 ns

CN1CCCc2cc(C3=Cc4cccc[n+]4[B-](F)(F)O3)ccc21
fluorescence lifetime (in ClC(Cl)Cl): 3 ns

CCOC(=O)CN(CC(=O)OCC)c1ccc(-c2cc(-c3ccccn3)nc(-c3ccccn3)c2)cc1
fluorescence lifetime (in CC#N): 5.21 ns
fluorescence lifetime (in CCOC(C)=O): 3.84 ns
fluorescence lifetime (in CN(C)C=O): 6.02 ns
fluorescence lifetime (in CS(C)=O): 6.76 ns
fluorescence lifetime (in c1ccccc1): 1.63 ns

CC1(C)C(=O)C=Cc2ccc(N3CCC3)cc21
fluorescence lifetime (in O): 3.83 ns

c1ccc2c(c1)CCc1c-2cnc2c1-c1ccccc1CC2
fluorescence lifetime (in C1CCOC1): 3.33 ns
fluorescence lifetime (in CC#N): 3.66 ns
fluorescence lifetime (in CCCCCC): 3.14 ns
fluorescence lifetime (in CCOC(C)=O): 3.46 ns
fluorescence lifetime (in CO): 3.96 ns
fluorescence lifetime (in CS(C)=O): 3.88 ns
fluorescence lifetime (in Cc1ccccc1): 3.24 ns
fluorescence lifetime (in ClCCl): 3.67 ns

Cc1cccc2nc3[nH]c(=O)[nH]c(=O)c3nc12
fluorescence lifetime (in CC#N): 0.9 ns

C(#Cc1ccc2c(c1)c1cc(C#Cc3ccccc3)ccc1n2-c1cc2ccccc2c2ccccc12)c1ccccc1
fluorescence lifetime (in ClCCl): 4.27 ns

c1ccc(-c2ccnc(-c3ccccc3)n2)cc1
fluorescence lifetime (in ClC(Cl)Cl): 0.6 ns

COc1ccc(-c2cc(-c3ccc(N(C)C)cc3)nc(-c3ccccc3)n2)cc1
fluorescence lifetime (in ClC(Cl)Cl): 7.1 ns

CN(C)c1ccc(C#Cc2ccc(-c3nc(C#N)c(C#N)n3C)cc2)cc1
fluorescence lifetime (in C1CCCCC1): 1.2 ns
fluorescence lifetime (in ClC(Cl)Cl): 1.7 ns

COc1c2ccccc2c(OC)c2c1c1c(F)cccc1n2C
fluorescence lifetime (in C1CCCCC1): 23.3 ns
fluorescence lifetime (in CC#N): 25.2 ns
fluorescence lifetime (in CO): 24.4 ns
fluorescence lifetime (in ClCCl): 21.2 ns

Fc1nc(F)c(F)c(/C=C2/C(c3c(F)c(F)nc(F)c3F)=Cc3ccccc32)c1F
fluorescence lifetime (in CC#N): 0.3 ns

COc1ccc2cc(-c3ccc([N+](=O)[O-])cc3)ccc2c1
fluorescence lifetime (in C1CCOC1): 0.33 ns
fluorescence lifetime (in CC#N): 0.22 ns
fluorescence lifetime (in ClC(Cl)Cl): 1.87 ns
fluorescence lifetime (in ClCCl): 2.04 ns
